From US7390903B2, “Thieno-pyridine derivatives as allosteric enhancers of the GABAB receptors” (Hoffmann-La Roche Inc., priority 2004, dated 2008)

How the values were obtained:
[1] = molecular target: GABABR1R2 (Homo sapiens, UniProt O75899+Q9UBS5); conditions: cited from earlier work; for effect on their own at GABAB receptors: absence of GABA; for effect on potency and maximal efficacy of GABA: in concert with endogenous GABA, GABABR1R2
[2] = molecular target: T1, human GABABR1aR2a (Homo sapiens, UniProt O75899+Q9UBS5); assay: Intracellular Ca2+ mobilization assay in CHO-GABABR1aR2a-Gα16 cell (FLIPR); format: cell-based; conditions: for GABA shift Log [EC50(GABA + 10 μM cp)/EC50(GABA alone)]: GABA 0.0003-30 μM in absence and presence of 10 μM enhancer; for Emax: enhancer 0.001-30 μM in the presence of 10 nM GABA (EC10), enhancer applied 15 min before GABA, read-out: Emax (%) at 10 nM GABA alone = 0% 10 μM GABA alone = 100%; for EC50: enhancer concentration-response (0.001-30 μM) in the presence of 10 nM GABA
T1 construct: expressed in transfected cells
T1 sequence (Q9UBS5 15-961 limits assumed): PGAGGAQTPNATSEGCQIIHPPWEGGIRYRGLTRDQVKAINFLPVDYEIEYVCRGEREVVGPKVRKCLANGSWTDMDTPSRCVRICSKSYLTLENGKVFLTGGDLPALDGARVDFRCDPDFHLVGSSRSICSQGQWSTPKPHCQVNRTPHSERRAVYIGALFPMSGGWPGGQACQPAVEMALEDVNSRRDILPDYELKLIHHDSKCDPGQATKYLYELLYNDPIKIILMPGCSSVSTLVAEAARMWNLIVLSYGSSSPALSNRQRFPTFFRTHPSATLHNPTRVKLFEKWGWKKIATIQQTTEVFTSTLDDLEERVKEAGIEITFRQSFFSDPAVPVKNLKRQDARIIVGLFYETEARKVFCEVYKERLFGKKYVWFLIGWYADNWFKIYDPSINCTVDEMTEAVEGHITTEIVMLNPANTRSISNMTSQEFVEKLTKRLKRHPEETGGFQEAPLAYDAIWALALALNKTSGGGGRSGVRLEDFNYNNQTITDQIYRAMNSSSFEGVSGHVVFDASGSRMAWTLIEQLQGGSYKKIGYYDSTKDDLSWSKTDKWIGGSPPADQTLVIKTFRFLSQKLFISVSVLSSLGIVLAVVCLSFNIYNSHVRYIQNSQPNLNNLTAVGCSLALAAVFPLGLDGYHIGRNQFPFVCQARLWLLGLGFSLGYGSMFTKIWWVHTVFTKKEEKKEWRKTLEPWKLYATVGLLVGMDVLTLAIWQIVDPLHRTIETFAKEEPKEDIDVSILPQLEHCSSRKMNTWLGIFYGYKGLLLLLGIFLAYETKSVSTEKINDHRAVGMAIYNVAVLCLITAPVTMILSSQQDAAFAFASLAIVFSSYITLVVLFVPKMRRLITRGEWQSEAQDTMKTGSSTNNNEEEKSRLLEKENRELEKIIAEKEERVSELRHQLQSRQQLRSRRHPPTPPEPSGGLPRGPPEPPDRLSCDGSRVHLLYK
T1 sequence (O75899 42-941): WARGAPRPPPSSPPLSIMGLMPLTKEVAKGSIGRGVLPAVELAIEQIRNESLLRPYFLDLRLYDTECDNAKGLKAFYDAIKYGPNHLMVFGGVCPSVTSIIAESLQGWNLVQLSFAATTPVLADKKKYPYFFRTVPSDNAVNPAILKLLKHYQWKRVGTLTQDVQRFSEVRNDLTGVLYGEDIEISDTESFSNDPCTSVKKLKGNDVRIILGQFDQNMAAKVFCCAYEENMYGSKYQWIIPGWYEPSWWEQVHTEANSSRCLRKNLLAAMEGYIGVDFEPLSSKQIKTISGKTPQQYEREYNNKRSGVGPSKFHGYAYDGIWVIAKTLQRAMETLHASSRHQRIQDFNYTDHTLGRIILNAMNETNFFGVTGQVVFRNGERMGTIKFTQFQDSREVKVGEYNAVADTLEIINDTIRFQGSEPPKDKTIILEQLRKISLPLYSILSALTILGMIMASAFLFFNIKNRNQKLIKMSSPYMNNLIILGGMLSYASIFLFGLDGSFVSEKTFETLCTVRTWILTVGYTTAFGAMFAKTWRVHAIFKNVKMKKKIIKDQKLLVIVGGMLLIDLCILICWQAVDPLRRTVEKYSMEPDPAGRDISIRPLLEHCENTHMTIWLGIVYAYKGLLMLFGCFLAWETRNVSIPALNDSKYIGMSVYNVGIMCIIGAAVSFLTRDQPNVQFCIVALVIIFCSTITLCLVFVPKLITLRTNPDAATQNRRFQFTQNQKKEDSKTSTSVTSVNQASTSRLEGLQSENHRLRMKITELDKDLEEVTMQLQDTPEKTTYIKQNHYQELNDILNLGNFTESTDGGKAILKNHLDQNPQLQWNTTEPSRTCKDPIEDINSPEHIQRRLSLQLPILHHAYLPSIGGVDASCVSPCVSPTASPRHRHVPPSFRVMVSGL
Procedure: Intracellular Ca^2+ Mobilization Assay
The Chinese Hamster Ovary (CHO) cells stably expressing human GABABR1aR2a and Gα16 were seeded at 5×10^4 cells/well in the poly-D-lysine treated, 96-well, black/clear-bottomed plates (BD Biosciences, Palo Alto, Calif.). 24 h later, the cells were loaded for 90 min at 37° C. with 4 μM Flou-4 acetoxymethyl ester (Catalog No. F-14202, Molecular Probes, Eugene, Oreg.) in loading buffer (1×HBSS, 20 mM HEPES, 2.5 mM Probenecid). Hanks' Balanced Salt Solution (HBSS) (10×) (catalog No. 14065-049) and HEPES (1M) (catalog No. 15630-056) were purchased from Invitrogen, Carlsbad, Calif. Probenecid (250 mM) (catalog No. P8761) was from Sigma, Buchs, Switzerland. The cells were washed five times with loading buffer to remove excess dye and intracellular calcium mobilization, [Ca^2+]i were measured using a Fluorometric Imaging Plate Reader (FLIPR, Molecular Devices, Menlo Park, Calif.) as described previously (Porter et al., Br. J. Pharmacol., 128, 13-20, 1999). The enhancers were applied 15 min before the application of the GABA. For GABA shift assay, concentration-response curves of GABA (0.0003-30 μM) were determined in the absence and presence of 10 μM enhancer. The GABA-shift is defined as Log [EC50 (GABA+10 μM enhancer)/EC50 (GABA alone)]. The % maximum enhancing effect (% Emax) and potency (EC50 value) of each enhancer was determined from concentration-response curve of the enhancer (0.001-30 μM) in the presence of 10 nM GABA (EC10). Responses were measured as peak increase in fluorescence minus basal, normalized to the maximal stimulatory effect induced by 10 μM GABA alone (considered 100%) and 10 nM GABA alone (considered 0%). The data were fitted with the equation Y=100+(Max−100)/(1+(EC50/[drug])^n) where Max is the maximum effect, EC50 the concentration eliciting a half-maximum effect and n the Hill slope.

[3] = rats; cited from earlier work
[4] = preclinical; cited from earlier work
[5] = cited from earlier work
[6] = PO, cited from earlier work
[7] = passive avoidance behavioral test in mice and rats; cited from earlier work
[8] = panic disorder patients; Hamilton, Zung anxiety scales, Katz-R nervousness subscale; cited from earlier work
[9] = small group of veterans with chronic, combat-related PTSD; cited from earlier work
[10] = rat; cited from earlier work

Chain of GABABR1R2 (Q9UBS5 20-961): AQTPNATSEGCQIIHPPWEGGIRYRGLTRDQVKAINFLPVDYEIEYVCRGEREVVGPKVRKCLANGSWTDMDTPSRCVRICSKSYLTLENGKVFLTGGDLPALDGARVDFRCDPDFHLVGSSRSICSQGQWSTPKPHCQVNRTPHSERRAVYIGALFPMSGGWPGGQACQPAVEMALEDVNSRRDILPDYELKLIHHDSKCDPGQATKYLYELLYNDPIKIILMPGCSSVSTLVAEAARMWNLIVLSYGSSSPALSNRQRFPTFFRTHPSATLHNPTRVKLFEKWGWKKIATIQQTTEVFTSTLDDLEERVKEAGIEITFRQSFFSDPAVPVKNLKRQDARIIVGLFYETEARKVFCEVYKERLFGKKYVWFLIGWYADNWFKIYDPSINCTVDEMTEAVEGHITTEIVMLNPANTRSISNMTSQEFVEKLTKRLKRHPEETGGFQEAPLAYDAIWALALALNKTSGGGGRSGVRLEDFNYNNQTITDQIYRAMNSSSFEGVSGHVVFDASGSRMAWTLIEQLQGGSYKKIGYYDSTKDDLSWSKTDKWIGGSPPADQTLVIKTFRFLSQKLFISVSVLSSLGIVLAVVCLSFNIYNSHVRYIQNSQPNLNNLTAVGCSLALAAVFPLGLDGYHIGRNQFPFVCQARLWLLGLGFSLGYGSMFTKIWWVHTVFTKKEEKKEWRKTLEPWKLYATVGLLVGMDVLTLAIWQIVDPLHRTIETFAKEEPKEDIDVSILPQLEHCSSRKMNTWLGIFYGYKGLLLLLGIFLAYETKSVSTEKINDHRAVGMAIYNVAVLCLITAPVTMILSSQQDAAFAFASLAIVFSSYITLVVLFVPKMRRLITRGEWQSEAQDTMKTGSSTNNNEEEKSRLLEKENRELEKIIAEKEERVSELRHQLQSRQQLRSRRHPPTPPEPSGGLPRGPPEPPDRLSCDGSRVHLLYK
Chain of GABABR1R2 (O75899 42-941): as the sequence (O75899 42-941) above

GABA shift Log [EC50(GABA + 10 μM cp)/EC50(GABA alone)] [2]	Emax [2]	EC50 [2]	SMILES	also measured
			CC(C)(C=O)Cc1cc(C(C)(C)C)c(O)c(C(C)(C)C)c1 [CGP13501]	effect on their own at GABAB receptors [1]: no effect on their own; effect on potency and maximal efficacy of GABA [1]: increase both the potency and maximal efficacy of GABA
−0.3	47%	14.7 µM	Cc1nc2sc3c(c2c(-c2ccc(Cl)c(Cl)c2)c1C(=O)C(F)(F)F)CCC3 [Example 1, 1-[4-(3,4-Dichloro-phenyl)-2-methyl-6,7-dihydro-5H-cyclopenta[4,5]thieno[2,3-b]pyridin-3-yl]-2,2,2-trifluoro-ethanone]	
			CC(C)(CO)Cc1cc(C(C)(C)C)c(O)c(C(C)(C)C)c1 [CGP7930, 2,6-di-tert-butyl-4-(3-hydroxy-2,2-dimethyl-propyl)-phenol]	effect on their own at GABAB receptors [1]: no effect on their own; effect on potency and maximal efficacy of GABA [1]: increase both the potency and maximal efficacy of GABA; cocaine self-administration [3]: effective at deceasing cocaine self-administration; efficacy for treatment of GERD [4]: found to be effective
−0.6	35%	1.3 µM	CC(=O)c1c(C)nc2sc3cnccc3c2c1-c1ccccc1 [Example 23, 1-(2-Methyl-4-phenyl-9-thia-1,7-diaza-fluoren-3-yl)-ethanone]	
			CSc1nc(NC2CCCC2)c([N+](=O)[O-])c(NC2CCCC2)n1 [GS39783, N,N_-dicyclopentyl-2-methylsulfanyl-5-nitro-pyrimidine-4,6-diamine]	tolerance after chronic treatment ([5]; 21 days, 10 mg/kg, P.O., once daily, light-dark box and elevated zero maze): No tolerance; anxiolytic-like effects ([5]; elevated plus maze (rat), elevated zero maze (mice and rats), stress-induced hyperthermia (mice)): exhibited anxiolytic-like effects; cocaine self-administration [3]: effective at deceasing cocaine self-administration; effect on spontaneous locomotor activity, rotarod, body temperature and traction test ([6]; 0.1-200 mg/kg): had no effect; effect on cognition performance [7]: did not have any effect
−0.9	59%	1.3 µM	Cc1nc2sc3c(c2c(-c2cccs2)c1C(=O)C(F)(F)F)CCC3 [Example 2, 2,2,2-Trifluoro-1-(2-methyl-4-thiophen-2-yl-6,7-dihydro-5H-cyclopenta[4,5]thieno[2,3-b]pyridin-3-yl)-ethanone]	
−1	58%	0.86 µM	CC(=O)c1c(C)nc2sc3c(c2c1-c1ccco1)CCC3 [Example 18, 1-(4-Furan-2-yl-2-methyl-6,7-dihydro-5H-cyclopenta[4,5]thieno[2,3-b]pyridin-3-yl)-ethanone]	
−0.3	20%	1.4 µM	COC(=O)N1CCc2c(sc3nc(C)c(C(C)=O)c(-c4ccccc4)c23)C1 [Example 38, 3-Acetyl-2-methyl-4-phenyl-5,8-dihydro-6H-9-thia-1,7-diaza-fluorene-7-carboxylic acid methyl ester]	
−0.9	69%	2.4 µM	Cc1nc2sc(C)c(C)c2c(-c2ccccc2)c1C(=O)C(F)(F)F [Example 16, 2,2,2-Trifluoro-1-(2,3,6-trimethyl-4-phenyl-thieno[2,3-b]pyridin-5-yl)-ethanone]	
−0.91	56%	1.2 µM	COC(=O)c1ccc(-c2c(C(=O)C3CC3)c(C)nc3sc4c(c23)CCCCC4)cc1 [Example 35, 4-(3-Cyclopropanecarbonyl-2-methyl-6,7,8,9-tetrahydro-H-10-thia-1-aza-benzo [a]azulen-4-yl)-benzoic acid methyl ester]	
−1.1	66%	1.9 µM	Cc1nc2sc(Cl)cc2c(-c2ccccc2)c1C(=O)C(F)(F)F [Example 21, 1-(2-Chloro-6-methyl-4-phenyl-thieno[2,3-b]pyridin-5-yl)-2,2,2-trifluoro-ethanone]	
			NCC(CC(=O)O)c1ccc(Cl)cc1 (stereo not drawn) [Baclofen, β-chlorophenyl GABA]	number of panic attacks and symptoms of anxiety [8]: significantly effective in reducing the number of panic attacks and symptoms of anxiety; treatment of PTSD [9]: effective and well-tolerated treatment; reversal of reduction in prepulse inhibition (PPI) induced by dizocilpine [10]: able to reverse the reduction in prepulse inhibition; side effects (spontaneous locomotor activity, rotarod, body temperature, traction test) ([6]; 2.5-15 mg/kg): showed these side effects
